Results from patent publication US20230152329A1, “NOVEL SPLIT-LUCIFERASE ENZYMES AND APPLICATIONS THEREOF” (ARIZONA BOARD OF REGENTS ON BEHALF OF THE UNIVERSITY OF …, priority 2020, published 2023).
Substitutions are numbered along the chain they refer to. Names may count otherwise. Like-named read-outs stand apart in the source and are kept apart here.

B1: Y33A: first-generation split-Fluc228 with N-FLuc228 Y33A single mutant (SEQ ID NO: 8) (protein)
chain: MEDAKNIKKGPAPFYPLEDGTAGEQLHKAMKRAALVPGTIAFTDAHIEVNITYAEYFEMSVRLAEAMKRYGLNTNHRIVVCSENSLQFFMPVLGALFIGVAVAPANDIYNERELLNSMNISQPTVVFVSKKGLQKILNVQKKLPIIQKIIIMDSKTDYQGFQSMYTFVTSHLPPGFNEYDFVPESFDRDKTIALIMNSSGSTGLPKGVALPHRTACVRFSHARDPIFG
B2: H46A: first-generation split-Fluc228 with N-FLuc228 H46A single mutant (SEQ ID NO: 7) (protein)
chain: B1 chain with A33Y, H46A

How the values were obtained:
[1] = target: T1, protein-protein interaction of Bcl-xL and BAK (Homo sapiens, UniProt Q07817); test: In cellulo split-luciferase assay, inhibition of Bcl-xL/BAK interaction in HEK293T cells; format: cell-based; settings: 14 hours; for inhibition at 10 µM: HEK-293T, read-out: Percent Inhibition
T1 construct: appending the soluble domain of Bcl-xL to the C-terminal fragment of N-Fluc228 Y33A/H46A; expressed in transfected cells; host or cells: HEK293T, transient transfection (pcDNA 3.1 constructs)
Description: N-terminal halves of firefly luciferase (N-Fluc) constructs were generated by fusing FK506-binding protein (FKBP) or Bcl-xL 209 (CΔ24) to the C-terminal of N-Fluc with a 27-residue glycine-serine linker in pcDNA 3.1 via restriction cloning. […] For in vitro assays, mRNA was generated using RiboMaX large scale RNA production system (T7) for 4 h at 30° C. and subsequently purified using G50-microcolumns.
HEK293T cells were maintained in DMEM supplemented with 10% (v/v) FBS, 2.5 μg/mL Amphotericin B, 100 U/mL penicillin, and 100 μg/mL streptomycin, and in a 37° C. water-saturated incubator with 5% CO2. For in cellulo experiments, 3×10^6 cells were seeded in 60 mm dishes for 24 h and then transiently transfected with equal amounts of DNA of each luciferase fragment using PolyJet In Vitro DNA Transfection Reagent. Twelve hours following transfection, 2.5×10^5 cells were transferred to 24-well plates and incubated for an additional 24 h. […] All reported data was done at least in duplicate and repeated on different days. Data from luciferase assays were all normalized by lysate load and with background correction of equivalently treated mock transfected HEK293T cells.
Split-Fluc228 Y33A/H46A constructs were created by appending the soluble domain of Bcl-xL to the C-terminal fragment of N-Fluc228 Y33A/H46A with a 27-residue glycine-serine linker, giving N-Fluc228 Y33A/H46A-GS27-Bcl-xL. The BH3 domain of BAK (20 residues) was appended to the N-terminal fragment of C-Fluc229 through a 30-residue glycine-serine linker, providing BAK-GS30-C-Fluc229.

FKBP-Rapamycin-FRB = target: T2, FKBP-Rapamycin-FRB (Homo sapiens, UniProt P42345+P62942); test: Cell-free (rabbit reticulocyte lysate) rapamycin-inducible split-luciferase assay; format: biochemical; settings: cell-free RRL; for rapamycin dependent luminescence signal (overall signal): 100 nM rapamycin; for unassisted/background complementation: without added rapamycin (DMSO)
T2 construct: N-terminal fragment of firefly luciferase (N-Fluc); split at 159, 228, 374, 397 or 405; C-terminal fragment of firefly luciferase (C-Fluc); made in house; host or cells: cell-free translation in rabbit reticulocyte lysate (RRL) from in vitro transcribed mRNA
Excerpt: N-terminal halves of firefly luciferase (N-Fluc) constructs were generated by fusing FK506-binding protein (FKBP) or Bcl-xL 209 (CΔ24) to the C-terminal of N-Fluc with a 27-residue glycine-serine linker in pcDNA 3.1 via restriction cloning. C-terminal halves of firefly luciferase (C-Fluc) were created by fusing either FKBP rapamycin-binding (FRB) domain or the BH3-domain of BAK to the N-terminal of C-Fluc with a 30-residue glycine-serine linker in pcDNA 3.1 via restriction cloning. For in vitro assays, mRNA was generated using RiboMaX large scale RNA production system (T7) for 4 h at 30° C. and subsequently purified using G50-microcolumns.
Following translation, 20 μL of lysate was added to 80 μL of L-Glo luciferase assay reagent, incubated at room temperature for 1 min and luminescence was subsequently read using a luminometer with 10 s integration time. All reported data are at least in duplicate and assays have been repeated on different days. Data from the reported luciferase assays were all normalized with background correction of equivalent treatment of RRL without added mRNA.
The N-terminal fragment of each split-luciferase was fused to FKBP at the C-terminal end and the C-terminal fragment of each split-luciferase was fused to FRB at the N-terminal end. Referring to FIG. 2A, the linkers between the enzyme fragments and the FKBP or FRB included 27 to 30 residue glycine-serine linkers. With the five split-Fluc constructs in hand, complementation was tested employing a cell-free protein expression approach using rabbit reticulocyte lysate (RRL), which allows for rapid protein expression and analysis. […] Following incubation, L-Glo reagent containing the substrate, luciferin, was added to each of the split-Fluc pairs and luminescence was subsequently measured.

[2] = 10 μM ABT-737, N-Fluc228 WT-Bcl-xL CΔ24 with BAK-CFluc229, HEK293T
[3] = 10 μM ABT-737, N-Fluc228 Y33A/H46A-Bcl-xL CΔ24 with BAK-CFluc229, HEK293T

T2 sequence (P62942 whole entry, the tested form may be a part): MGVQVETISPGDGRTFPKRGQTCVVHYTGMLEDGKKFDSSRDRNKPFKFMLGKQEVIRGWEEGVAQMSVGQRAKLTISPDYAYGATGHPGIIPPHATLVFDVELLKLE
T2 sequence (P42345 2012-2144 limits assumed): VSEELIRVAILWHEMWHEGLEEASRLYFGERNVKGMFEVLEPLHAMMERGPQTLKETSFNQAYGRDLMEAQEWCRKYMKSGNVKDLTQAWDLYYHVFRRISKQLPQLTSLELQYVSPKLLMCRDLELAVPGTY
T1 sequence (Q07817 1-209 limits assumed): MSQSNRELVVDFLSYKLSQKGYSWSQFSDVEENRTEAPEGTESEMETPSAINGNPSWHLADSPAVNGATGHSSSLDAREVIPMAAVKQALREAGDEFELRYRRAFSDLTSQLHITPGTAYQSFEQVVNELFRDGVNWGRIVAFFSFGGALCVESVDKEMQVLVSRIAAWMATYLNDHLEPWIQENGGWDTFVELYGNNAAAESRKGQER

| Molecule | Average RLU [1, 2] | Average RLU [1, 3] | Percent Inhibition [1, 3] [%] | inhibition at 10 µM [1, 2] [%] | inhibition at 10 µM [1, 3] [%] | rapamycin dependent luminescence signal (overall signal) (FKBP-Rapamycin-FRB) | unassisted/background complementation (FKBP-Rapamycin-FRB) |
| --- | --- | --- | --- | --- | --- | --- | --- |
| CN(C)CC[C@H](CSc1ccccc1)Nc1ccc(S(=O)(=O)NC(=O)c2ccc(N3CCN(Cc4ccccc4-c4ccc(Cl)cc4)CC3)cc2)cc1[N+](=O)[O-] [ABT-737] | 438,145 RLU | 2,258 RLU | 99.8 | 96.1 | > 99 | – | – |
| B1 | – | – | – | – | – | maintaining strong rapamycin dependent signals | significantly reduced unassisted complementation |
| B2 | – | – | – | – | – | maintaining strong rapamycin dependent signals | significantly reduced unassisted complementation |
